This note sets out measurements from patent US5952320A, “Macrocyclic inhibitors of matrix metalloproteinases and TNFα secretion” (Abbott Laboratories, priority 1997, dated 1999).

T1 sequence (P08254 100-272 limits assumed): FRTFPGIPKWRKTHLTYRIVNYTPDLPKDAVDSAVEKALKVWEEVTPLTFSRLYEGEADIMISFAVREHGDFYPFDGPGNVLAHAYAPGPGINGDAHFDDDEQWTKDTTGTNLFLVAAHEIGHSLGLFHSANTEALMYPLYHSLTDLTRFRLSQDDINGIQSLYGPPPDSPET

One assay concerns the target T1, Recombinant truncated stromelysin (human sequence) (Homo sapiens, UniProt P08254).
T1 construct: made in house; host or cells: E. coli
Nature of the assay: Determination of Stromelysin Inhibition (cleavage of thiopeptide ester substrate, DTNB, 405 nm). Format: biochemical.
Conditions: not given
On the procedure:
The efficacy of the compounds of this invention as matrix metalloproteinase inhibitors was determined by measuring the inhibition of stromelysin. The inhibition of stromelysin by the compounds of this invention was determined as follows: Recombinant truncated stromelysin (human sequence) produced in E. coli was prepared by expression and purification of the protein as described by Ye et al., Biochemistry, 1992, 31, 11231-11235. The enzyme was assayed by its cleavage of the thiopeptide ester substrate Ac-Pro-Leu-Gly-[2-mercapto-4-methyl-pentanoyl]-Leu-Gly-OEt described by Weingarten and Feder, Anal. Biochem., 1985, 147, 437-440 (1985), as a substrate of vertebrate collagenase. The reported conditions were modified to allow assays to be carried out in a microtiter plate. Upon hydrolysis of the thioester bond, the released thiol group reacts rapidly with 5,5'-dithio-bis(2-nitrobenzoic acid) (DTNB), producing a yellow color which is measured by a microtiter plate reader set at 405 nm. The rates of cleavage of the substrate by stromelysin in the presence or absence of inhibitors are measured in a 30 min assay at ambient temperature. Solutions of the compounds in DMSO are prepared, and these are diluted at various concentrations into the assay buffer (50 mM MES/NaOH pH 6.5 with 10 mM CaCl2 and 0.2% Pluronic F-68), which is also used for dilution of the enzyme and substrate. The potency of the compounds [IC50 ] are calculated from the inhibition/inhibitor concentration data.
As a reminder, the IC50 is the midpoint of a concentration-inhibition curve. Turning to `CC(C)C[C@H]1C(=O)N[C@H](C(=O)O)Cc2ccc(cc2)OCCCCC[C@@H]1C(=O)NO` [Example 21], the IC50 is 39 nM. Same read-out and setting: the figure for `COC(=O)[C@@H]1Cc2ccc(cc2)OCCCCC[C@H](C(=O)NO)[C@@H](CC(C)C)C(=O)N1` [Example 26] is 27 nM; for `Cc1ccc(CCC[C@H]2C(=O)N[C@H](C(=O)O)Cc3ccc(cc3)OCCCC[C@@H]2C(=O)NO)cc1` [Example 32] it is 6.7 nM.

Staying with this assay, now noted: Inhibitory potencies against stromelysin; 30 min assay at ambient temperature, pH 6.5; read-out: IC50.
Consider `CNC(=O)[C@@H]1Cc2ccc(cc2)OCCCC[C@H](C(=O)NO)[C@@H](CC(C)C)C(=O)N1` [8 anti], for which the IC50 was determined as 3.9 nM. The same measure, in the same setting: in the case of `CNC(=O)[C@@H]1Cc2ccc(cc2)OCCCC[C@@H](C(=O)NO)[C@@H](CC(C)C)C(=O)N1` [8 syn] it was 570 nM; in that of `CC(C)C[C@H]1C(=O)N[C@H](C(=O)NCCc2ccc(S(N)(=O)=O)cc2)Cc2ccc(cc2)OCCCC[C@@H]1C(=O)NO` [Example 1], 6.9 nM. Same read-out and setting: in the case of `CC(C)C[C@H]1C(=O)N[C@H](C(=O)NCCc2ccccc2)Cc2ccc(cc2)OCCCC[C@@H]1C(=O)NO` [Example 2] it was 7.2 nM; in that of `CC(C)C[C@H]1C(=O)N[C@H](C(=O)NC2CC2)Cc2ccc(cc2)OCCCC[C@@H]1C(=O)NO` [Example 3], 5.8 nM; in that of `CC(C)C[C@H]1C(=O)N[C@H](C(=O)Nc2ccccc2)Cc2ccc(cc2)OCCCC[C@@H]1C(=O)NO` [Example 4], 2.4 nM.

Turning to `CC(C)C[C@H]1C(=O)N[C@H](C(=O)N2CCOCC2)Cc2ccc(cc2)OCCCC[C@@H]1C(=O)NO` [Example 5], the IC50 came out at 9.3 nM.

Turning to `CC(C)C[C@H]1C(=O)N[C@H](C(=O)Nc2ccccn2)Cc2ccc(cc2)OCCCC[C@@H]1C(=O)NO` [Example 6], the half-inhibitory concentration (IC50) was found to be 2.6 nM. As for `CC(C)C[C@H]1C(=O)N[C@H](c2nc3ccccc3[nH]2)Cc2ccc(cc2)OCCCC[C@@H]1C(=O)NO` [Example 7], the half-maximal inhibitory concentration (IC50) came out at 3.6 nM. As for `CNC(=O)[C@@H]1Cc2ccc(cc2)OCCC[C@H](C(=O)O)[C@@H](CC(C)C)C(=O)N1` [Example 9], the IC50 turned out to be 2100 nM. On the same count and under the same terms, the figure for `CNC(=O)[C@@H]1Cc2ccc(cc2)OCCC[C@H](C(=O)NO)[C@@H](CC(C)C)C(=O)N1` [Example 10] is 7.8 nM; for `CNC(=O)[C@@H]1Cc2ccc(cc2)OCCCCC[C@H](C(=O)NO)[C@@H](CC(C)C)C(=O)N1` [Example 11] it is 6.1 nM.

For the compound `CNC(=O)[C@@H]1Cc2ccc(cc2)OCCCCCC[C@H](C(=O)NO)[C@@H](CC(C)C)C(=O)N1` [Example 12], the IC50 amounted to 12 nM. Take `CNC(=O)[C@@H]1Cc2ccc(cc2)/C=C\CCCCC(C(=O)NO)[C@@H](CC(C)C)C(=O)N1` (stereo partly shown) [Example 13]: the IC50 stood at 2.4 nM. Same read-out and setting: the figure for `CC(C)C[C@H]1C(=O)N[C@H](C(=O)c2ccccc2)Cc2ccc(cc2)OCCCCC[C@@H]1C(=O)NO` [Example 14] is 2.7 nM. The same measure, in the same setting: the figure for `CC(C)C[C@H]1C(=O)N[C@H](C(=O)c2ccc[nH]2)Cc2ccc(cc2)OCCCCC[C@@H]1C(=O)NO` [Example 15] is 7.2 nM. The same measure, in the same setting: the figure for `CNC(=O)[C@@H]1Cc2ccc(cc2)NC(=O)CCCC[C@H](C(=O)NO)[C@@H](CC(C)C)C(=O)N1` [Example 16] is 23 nM; for `CNC(=O)[C@@H]1Cc2ccc(cc2)N(C(=O)OCc2ccccc2)CCCCC[C@H](C(=O)NO)[C@@H](CC(C)C)C(=O)N1` [Example 18] it is 0.61 nM; for `CNC(=O)[C@@H]1Cc2ccc(cc2)NCCCCC[C@H](C(=O)NO)[C@@H](CC(C)C)C(=O)N1` [Example 19] it is 20 nM. With `CC(C)C[C@H]1C(=O)N[C@H](C(=O)OCc2ccccc2)Cc2ccc(cc2)OCCCCC[C@@H]1C(=O)NO` [Example 20], the IC50 was determined as 92 nM. Regarding `CC(C)C[C@H]1C(=O)N[C@H](c2nc(-c3ccccc3)c[nH]2)Cc2ccc(cc2)OCCCCC[C@@H]1C(=O)NO` [Example 23], the IC50 stood at 8.1 nM.

Take `CC(C)C[C@H]1C(=O)N[C@H](C(=O)N2CCC[C@H]2C(=O)OCc2ccccc2)Cc2ccc(cc2)OCCCCC[C@@H]1C(=O)NO` [Example 24]: the IC50 was 8.9 nM. Consider `CC(C)C[C@H]1C(=O)N[C@H](C(=O)N2CCC[C@H]2C(=O)O)Cc2ccc(cc2)OCCCCC[C@@H]1C(=O)NO` [Example 25], for which the IC50 amounted to 44 nM.

Turning to `CNC(=O)[C@@H]1Cc2ccc(cc2)OCCCCC[C@H](C(=O)O)[C@@H](CCCc2ccc(C)cc2)C(=O)N1` [Example 30], the IC50 stood at 20 nM. Still for that read-out and setting: in the case of `CNC(=O)[C@@H]1Cc2ccc(cc2)OCCCCC[C@H](C(=O)NO)[C@@H](CCCc2ccc(C)cc2)C(=O)N1` [Example 31] it was 2.9 nM; in that of `CCCc1ccc(CC[C@H]2C(=O)N[C@H](C(=O)NC)Cc3ccc(cc3)OCCCC[C@@H]2C(=O)NO)cc1` [Example 34], 1.5 nM; in that of `Cc1ccc(CCC[C@H]2C(=O)N[C@H](C(=O)NCCN(C)C)Cc3ccc(cc3)OCCCC[C@@H]2C(=O)NO)cc1` [Example 38], 0.56 nM. In the case of `CNC(=O)[C@H]1NC(=O)[C@H](CC(C)C)[C@@H](C(=O)NO)CCCCCOc2ccc1cc2` [Example 41], the IC50 came out at 26 nM.
